Experimental data as given in ChEMBL document CHEMBL1201862, “PubChem BioAssay data set” (2004).
Calls of active or inactive are those of the source.

Columns and labels:
[1] = inhibitors of intracellular T. cruzi replication, confirmation, NIH3T3 host cells, beta-gal luminescence (AID 2044); type: functional, cell-based;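 note: intracellular parasites grown in NIH/3T3 mouse fibroblasts as host cells; luminescent beta-galactosidase reporter signal from transgenic T. cruzi replicating inside host cells; inhibitors lower the luminescence signal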
[2] = Luminescence Cell-Based/Microorganism Confirmation at Dose of Inhibitors of Trypanosoma cruzi Infection. [Related pubchem assays: 1885, 1968 ]; type: functional
[3] = Luminescence Cell-Based Secondary HTS screen to identify cytotoxic compounds of NIH3T3 cells. [Related pubchem assays: 1885, 1968 ]; type: functional
[4] = cytotoxicity toward NIH3T3 fibroblasts, dose response, counter-screen, cell-based, ATP luminescence, mouse fibroblasts (AID 2010); type: functional;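 note: cells exposed to compound for about 90 hours before reading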
[5] = inhibitors of Trypanosoma cruzi host-cell infection, confirmation, beta-gal luminescence, NIH3T3 host cells (AID 2630); type: functional, cell-based; conditions: Mus musculus
MDCK [6] = test: MDCK cell cytotoxicity, dose response, cytotoxicity control (AID 540296); type: functional; conditions: Canis lupus familiaris
MDCK [7] = test: antiviral activity against H1N1 influenza, dose response, cell-based, strain KY180 (AID 540254); type: functional; conditions: Canis lupus familiaris
Nonstructural protein 1 = Nonstructural protein 1 (Influenza A virus, UniProt Q194T2); type: functional, Influenza A virus (A/California/07/2009(H1N1))
Nonstructural protein 1, sequence (Q194T2 whole entry): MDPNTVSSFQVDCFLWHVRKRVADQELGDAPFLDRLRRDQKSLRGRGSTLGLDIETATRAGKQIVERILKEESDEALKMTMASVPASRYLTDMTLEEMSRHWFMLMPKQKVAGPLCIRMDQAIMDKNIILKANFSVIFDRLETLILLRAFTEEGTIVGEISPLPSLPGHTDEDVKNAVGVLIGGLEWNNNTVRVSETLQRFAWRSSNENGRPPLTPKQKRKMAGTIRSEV

Keap1/Nrf2 = Keap1/Nrf2 (Homo sapiens, UniProt Q14145); test: Keap1-Nrf2 protein-protein interaction inhibitors, dose response, biochemical, fluorescence polarization, cherry-picked samples (AID 588683)
Keap1/Nrf2, sequence (Q16236 whole entry): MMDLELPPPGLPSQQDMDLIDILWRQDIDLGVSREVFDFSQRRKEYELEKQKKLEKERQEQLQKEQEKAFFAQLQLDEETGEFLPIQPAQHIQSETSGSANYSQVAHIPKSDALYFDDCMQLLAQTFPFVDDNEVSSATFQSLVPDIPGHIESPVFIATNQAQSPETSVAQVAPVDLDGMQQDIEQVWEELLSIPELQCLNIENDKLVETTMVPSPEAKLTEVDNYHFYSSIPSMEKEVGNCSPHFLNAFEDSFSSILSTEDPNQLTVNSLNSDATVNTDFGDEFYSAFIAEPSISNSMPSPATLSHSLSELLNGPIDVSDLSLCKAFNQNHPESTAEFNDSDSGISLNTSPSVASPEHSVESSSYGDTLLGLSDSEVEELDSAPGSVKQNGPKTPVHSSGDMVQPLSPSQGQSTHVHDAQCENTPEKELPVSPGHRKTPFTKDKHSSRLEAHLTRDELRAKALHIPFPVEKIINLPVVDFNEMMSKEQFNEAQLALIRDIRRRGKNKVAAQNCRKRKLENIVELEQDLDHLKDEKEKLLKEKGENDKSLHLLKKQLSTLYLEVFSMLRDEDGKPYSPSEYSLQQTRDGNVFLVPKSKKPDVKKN
Keap1/Nrf2, sequence (Q14145 whole entry): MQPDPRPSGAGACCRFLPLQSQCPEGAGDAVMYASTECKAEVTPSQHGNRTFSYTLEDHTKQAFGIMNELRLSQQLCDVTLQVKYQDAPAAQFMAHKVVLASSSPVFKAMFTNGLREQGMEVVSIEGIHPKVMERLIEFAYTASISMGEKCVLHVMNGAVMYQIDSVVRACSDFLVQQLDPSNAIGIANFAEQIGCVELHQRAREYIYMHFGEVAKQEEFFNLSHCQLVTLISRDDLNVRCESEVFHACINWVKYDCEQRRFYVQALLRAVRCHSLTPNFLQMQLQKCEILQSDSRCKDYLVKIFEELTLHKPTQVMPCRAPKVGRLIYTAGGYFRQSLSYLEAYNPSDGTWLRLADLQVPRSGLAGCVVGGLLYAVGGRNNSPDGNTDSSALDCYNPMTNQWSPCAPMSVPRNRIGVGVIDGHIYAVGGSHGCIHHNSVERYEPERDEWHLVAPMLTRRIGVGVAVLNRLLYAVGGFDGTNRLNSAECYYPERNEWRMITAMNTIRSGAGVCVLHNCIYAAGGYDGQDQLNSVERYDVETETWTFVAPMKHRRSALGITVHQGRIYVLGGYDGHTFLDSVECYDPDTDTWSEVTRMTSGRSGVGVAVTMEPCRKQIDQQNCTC

HeLa = test: HeLa cell cytotoxicity, dose response, cytotoxicity control for MITF activator project, CellTiter-Glo luminescence, cherry-pick samples (AID 540259); type: functional, cell-based; conditions: Homo sapiens
[8] = target: T1, Alkaline phosphatase, tissue-nonspecific isozyme (Homo sapiens, UniProt P05186); test: TNAP enzyme activators, dose response, selectivity assay for human IAP activator project, biochemical, TNAP isozyme, human IAP uHTS hits (AID 488886); type: functional;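 note: potency of compounds raising TNAP activity as a selectivity check on IAP activators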
T1 sequence (P05186 whole entry): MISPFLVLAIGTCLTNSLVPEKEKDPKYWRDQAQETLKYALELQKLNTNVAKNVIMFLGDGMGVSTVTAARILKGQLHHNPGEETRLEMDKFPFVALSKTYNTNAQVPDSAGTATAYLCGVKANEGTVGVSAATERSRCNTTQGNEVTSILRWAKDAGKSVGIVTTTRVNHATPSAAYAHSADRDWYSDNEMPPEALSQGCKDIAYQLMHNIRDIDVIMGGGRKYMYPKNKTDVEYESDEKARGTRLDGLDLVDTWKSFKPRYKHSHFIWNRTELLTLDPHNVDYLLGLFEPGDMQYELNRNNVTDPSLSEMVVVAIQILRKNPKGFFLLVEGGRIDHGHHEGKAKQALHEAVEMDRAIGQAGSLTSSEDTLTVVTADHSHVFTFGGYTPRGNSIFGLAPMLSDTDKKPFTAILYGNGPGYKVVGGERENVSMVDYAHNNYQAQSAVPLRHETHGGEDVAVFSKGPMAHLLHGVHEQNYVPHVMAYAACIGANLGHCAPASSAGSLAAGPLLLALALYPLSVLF

[9] = target: T2, Intestinal-type alkaline phosphatase (Homo sapiens, UniProt P09923); test: human intestinal alkaline phosphatase activators, dose response, biochemical, luminescence, uHTS hits (AID 463120); type: functional
T2 sequence (P09923 whole entry): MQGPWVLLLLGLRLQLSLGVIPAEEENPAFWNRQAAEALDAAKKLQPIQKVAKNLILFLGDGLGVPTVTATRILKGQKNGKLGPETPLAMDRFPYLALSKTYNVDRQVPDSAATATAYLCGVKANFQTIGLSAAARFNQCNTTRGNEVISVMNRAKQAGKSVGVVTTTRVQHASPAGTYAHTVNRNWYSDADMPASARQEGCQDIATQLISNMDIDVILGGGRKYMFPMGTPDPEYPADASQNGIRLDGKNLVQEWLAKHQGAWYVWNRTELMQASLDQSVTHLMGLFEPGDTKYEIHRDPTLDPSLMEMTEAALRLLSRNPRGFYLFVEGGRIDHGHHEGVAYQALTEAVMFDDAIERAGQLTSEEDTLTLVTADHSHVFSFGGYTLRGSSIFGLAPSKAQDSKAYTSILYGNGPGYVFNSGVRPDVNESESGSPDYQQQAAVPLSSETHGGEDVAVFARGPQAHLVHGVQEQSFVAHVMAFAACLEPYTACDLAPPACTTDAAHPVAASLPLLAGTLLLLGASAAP

[10] = target: Intestinal-type alkaline phosphatase (Mus musculus, UniProt P24822); test: PubChem AID 488875; type: functional
Intestinal-type alkaline phosphatase (Mus musculus, UniProt P24822), sequence (P24822 whole entry): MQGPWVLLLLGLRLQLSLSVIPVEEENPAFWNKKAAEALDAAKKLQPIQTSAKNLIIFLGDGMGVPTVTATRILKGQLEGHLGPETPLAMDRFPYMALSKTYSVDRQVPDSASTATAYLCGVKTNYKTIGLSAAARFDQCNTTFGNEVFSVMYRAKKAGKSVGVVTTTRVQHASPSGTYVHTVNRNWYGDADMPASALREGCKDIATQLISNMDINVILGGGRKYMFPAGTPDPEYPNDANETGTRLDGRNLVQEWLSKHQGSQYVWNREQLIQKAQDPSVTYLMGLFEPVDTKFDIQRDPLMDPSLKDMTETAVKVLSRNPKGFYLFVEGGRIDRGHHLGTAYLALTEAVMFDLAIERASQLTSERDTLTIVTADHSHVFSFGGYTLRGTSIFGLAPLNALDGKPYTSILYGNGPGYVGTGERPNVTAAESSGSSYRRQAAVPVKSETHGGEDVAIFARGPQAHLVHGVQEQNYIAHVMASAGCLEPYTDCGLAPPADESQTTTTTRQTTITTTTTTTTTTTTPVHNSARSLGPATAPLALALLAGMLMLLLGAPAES

[11] = target: T2, Intestinal-type alkaline phosphatase; test: human IAP activators, dose response, biochemical, luminescent, uHTS hits, set 2 (AID 488817); type: functional;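 note: potency of activators that raise enzyme activity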
[12] = Luminescence Cell-Based Dose Retest to Confirm Inhibitors of Cancer Stem Cells. [Related pubchem assays (depositor defined):AID2717, AID2721]; type: functional; conditions: Homo sapiens
[13] = cytotoxicity in HMLE control line with eGFP shRNA, dose response, counter-screen for HMLE_sh_ECad selective toxicity project, cell-based, HMLE_sh_eGFP, luminescence (AID 463074); type: functional, Homo sapiens;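 note: HMLE human mammary epithelial cells expressing control shRNA against eGFP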
[14] = target: Phosphoethanolamine/phosphocholine phosphatase (Homo sapiens, UniProt Q8TCT1); test: SAR assay for compounds that inhibit PHOSPHO1. [Related pubchem assays (depositor defined):AID1545, AID1565, AID1574]
Phosphoethanolamine/phosphocholine phosphatase, sequence (Q8TCT1 whole entry): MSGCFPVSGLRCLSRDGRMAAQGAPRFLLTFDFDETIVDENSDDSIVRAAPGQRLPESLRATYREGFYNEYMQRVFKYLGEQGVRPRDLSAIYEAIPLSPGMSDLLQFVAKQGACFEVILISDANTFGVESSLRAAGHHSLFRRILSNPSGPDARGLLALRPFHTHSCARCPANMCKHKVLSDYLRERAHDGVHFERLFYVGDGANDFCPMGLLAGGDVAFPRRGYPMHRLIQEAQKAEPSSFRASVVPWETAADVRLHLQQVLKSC

Phosphomannomutase 2 = Phosphomannomutase 2 (Homo sapiens, UniProt O15305); test: Counter screen SAR assay for PMM2 inhibitors via a fluorescence intensity assay. [Related pubchem assays (depositor defined):AID1545, AID1574]
Phosphomannomutase 2, sequence (O15305 whole entry): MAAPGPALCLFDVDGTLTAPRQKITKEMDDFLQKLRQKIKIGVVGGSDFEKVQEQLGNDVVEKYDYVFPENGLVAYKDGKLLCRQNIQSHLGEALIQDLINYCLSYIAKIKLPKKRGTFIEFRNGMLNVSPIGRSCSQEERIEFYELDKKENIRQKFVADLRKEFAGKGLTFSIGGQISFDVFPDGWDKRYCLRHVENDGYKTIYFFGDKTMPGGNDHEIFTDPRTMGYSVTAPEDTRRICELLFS

[15] = target: T3, Mannose-6-phosphate isomerase (Homo sapiens, UniProt P34949); test: PMI enzyme inhibitors, confirmation, biochemical, fluorescence intensity (AID 1535)
T3 sequence (P34949 whole entry): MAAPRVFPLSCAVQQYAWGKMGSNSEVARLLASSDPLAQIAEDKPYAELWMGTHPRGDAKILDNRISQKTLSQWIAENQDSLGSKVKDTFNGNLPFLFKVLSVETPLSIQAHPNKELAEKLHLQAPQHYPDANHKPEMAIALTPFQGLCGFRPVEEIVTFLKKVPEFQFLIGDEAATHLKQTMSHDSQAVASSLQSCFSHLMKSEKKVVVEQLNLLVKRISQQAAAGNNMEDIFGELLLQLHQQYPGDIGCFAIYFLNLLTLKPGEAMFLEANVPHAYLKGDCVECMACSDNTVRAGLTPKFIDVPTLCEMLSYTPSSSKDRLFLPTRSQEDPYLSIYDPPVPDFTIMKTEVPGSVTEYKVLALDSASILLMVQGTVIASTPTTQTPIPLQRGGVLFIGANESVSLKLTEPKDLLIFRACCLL

Hexokinase-1 = target: T4, Hexokinase-1 (Homo sapiens, UniProt P19367); test: HK1 enzyme inhibition by HKDC1 hits, SAR follow-up, selectivity assay for HKDC1 inhibitor project, biochemical, set 2, resazurin fluorescence coupled readout (AID 588356); type: functional
T4 sequence (P19367 whole entry): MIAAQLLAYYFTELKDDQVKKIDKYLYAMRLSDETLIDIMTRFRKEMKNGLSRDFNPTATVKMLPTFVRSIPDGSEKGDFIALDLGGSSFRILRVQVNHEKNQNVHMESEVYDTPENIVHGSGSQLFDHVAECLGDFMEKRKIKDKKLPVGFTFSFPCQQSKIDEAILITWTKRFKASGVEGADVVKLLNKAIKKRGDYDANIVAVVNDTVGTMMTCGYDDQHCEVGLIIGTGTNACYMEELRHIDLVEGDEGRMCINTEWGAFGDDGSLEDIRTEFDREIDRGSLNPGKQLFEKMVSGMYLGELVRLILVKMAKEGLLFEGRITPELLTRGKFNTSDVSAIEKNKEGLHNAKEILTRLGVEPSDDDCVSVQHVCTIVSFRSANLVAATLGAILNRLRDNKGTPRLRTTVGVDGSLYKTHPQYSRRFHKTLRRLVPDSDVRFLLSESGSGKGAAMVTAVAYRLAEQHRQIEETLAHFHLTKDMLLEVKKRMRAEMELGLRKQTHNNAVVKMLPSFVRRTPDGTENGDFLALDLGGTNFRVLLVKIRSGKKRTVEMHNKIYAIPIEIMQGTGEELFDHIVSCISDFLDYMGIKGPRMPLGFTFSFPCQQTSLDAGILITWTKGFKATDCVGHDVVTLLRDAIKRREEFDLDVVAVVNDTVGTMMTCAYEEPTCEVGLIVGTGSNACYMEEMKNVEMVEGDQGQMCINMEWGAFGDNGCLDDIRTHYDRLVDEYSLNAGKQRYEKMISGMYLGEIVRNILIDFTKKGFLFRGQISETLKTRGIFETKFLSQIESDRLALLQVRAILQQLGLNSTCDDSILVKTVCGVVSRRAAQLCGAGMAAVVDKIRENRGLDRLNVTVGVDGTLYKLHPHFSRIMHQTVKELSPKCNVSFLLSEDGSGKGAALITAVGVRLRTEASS

Hexokinase HKDC1 = target: T5, Hexokinase HKDC1 (Homo sapiens, UniProt Q2TB90); test: HKDC1 hexokinase inhibitors, SAR follow-up, biochemical, set 2 (AID 588355); type: functional
T5 sequence (Q2TB90 whole entry): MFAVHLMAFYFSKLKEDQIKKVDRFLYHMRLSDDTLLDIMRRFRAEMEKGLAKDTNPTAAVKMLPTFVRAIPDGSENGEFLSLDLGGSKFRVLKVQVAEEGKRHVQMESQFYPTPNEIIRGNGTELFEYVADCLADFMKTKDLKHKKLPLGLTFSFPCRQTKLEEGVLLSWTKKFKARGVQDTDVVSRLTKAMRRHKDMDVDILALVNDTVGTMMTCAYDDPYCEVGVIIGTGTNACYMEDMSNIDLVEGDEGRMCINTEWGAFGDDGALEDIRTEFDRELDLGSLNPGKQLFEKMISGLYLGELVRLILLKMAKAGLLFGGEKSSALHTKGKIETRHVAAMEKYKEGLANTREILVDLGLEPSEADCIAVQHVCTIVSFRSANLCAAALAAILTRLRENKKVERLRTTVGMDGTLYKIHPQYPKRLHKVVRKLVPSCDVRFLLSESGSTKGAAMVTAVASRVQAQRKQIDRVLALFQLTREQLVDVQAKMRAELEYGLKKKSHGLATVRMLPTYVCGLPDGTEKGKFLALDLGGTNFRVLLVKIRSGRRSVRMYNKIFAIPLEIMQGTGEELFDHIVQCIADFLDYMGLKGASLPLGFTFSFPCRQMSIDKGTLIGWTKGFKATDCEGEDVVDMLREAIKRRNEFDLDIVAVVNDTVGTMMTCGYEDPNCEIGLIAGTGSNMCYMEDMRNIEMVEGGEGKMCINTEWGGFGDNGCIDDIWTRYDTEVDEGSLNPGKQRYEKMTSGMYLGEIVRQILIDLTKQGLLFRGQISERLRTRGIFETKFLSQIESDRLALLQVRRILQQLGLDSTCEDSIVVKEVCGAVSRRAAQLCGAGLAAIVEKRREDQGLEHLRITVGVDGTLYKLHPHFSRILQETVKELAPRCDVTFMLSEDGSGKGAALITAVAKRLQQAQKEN

[16] = target: T6, Short transient receptor potential channel 4 (Mus musculus, UniProt Q9QUQ5); test: SAR Analysis for the identification of selective inhibits of the transient receptor potential cation channel C4 (TRPC4): Automated Electrophysiology_2. [Related pubchem assays (depositor defined):AID2256]; type: functional
T6 sequence (Q9QUQ5 whole entry): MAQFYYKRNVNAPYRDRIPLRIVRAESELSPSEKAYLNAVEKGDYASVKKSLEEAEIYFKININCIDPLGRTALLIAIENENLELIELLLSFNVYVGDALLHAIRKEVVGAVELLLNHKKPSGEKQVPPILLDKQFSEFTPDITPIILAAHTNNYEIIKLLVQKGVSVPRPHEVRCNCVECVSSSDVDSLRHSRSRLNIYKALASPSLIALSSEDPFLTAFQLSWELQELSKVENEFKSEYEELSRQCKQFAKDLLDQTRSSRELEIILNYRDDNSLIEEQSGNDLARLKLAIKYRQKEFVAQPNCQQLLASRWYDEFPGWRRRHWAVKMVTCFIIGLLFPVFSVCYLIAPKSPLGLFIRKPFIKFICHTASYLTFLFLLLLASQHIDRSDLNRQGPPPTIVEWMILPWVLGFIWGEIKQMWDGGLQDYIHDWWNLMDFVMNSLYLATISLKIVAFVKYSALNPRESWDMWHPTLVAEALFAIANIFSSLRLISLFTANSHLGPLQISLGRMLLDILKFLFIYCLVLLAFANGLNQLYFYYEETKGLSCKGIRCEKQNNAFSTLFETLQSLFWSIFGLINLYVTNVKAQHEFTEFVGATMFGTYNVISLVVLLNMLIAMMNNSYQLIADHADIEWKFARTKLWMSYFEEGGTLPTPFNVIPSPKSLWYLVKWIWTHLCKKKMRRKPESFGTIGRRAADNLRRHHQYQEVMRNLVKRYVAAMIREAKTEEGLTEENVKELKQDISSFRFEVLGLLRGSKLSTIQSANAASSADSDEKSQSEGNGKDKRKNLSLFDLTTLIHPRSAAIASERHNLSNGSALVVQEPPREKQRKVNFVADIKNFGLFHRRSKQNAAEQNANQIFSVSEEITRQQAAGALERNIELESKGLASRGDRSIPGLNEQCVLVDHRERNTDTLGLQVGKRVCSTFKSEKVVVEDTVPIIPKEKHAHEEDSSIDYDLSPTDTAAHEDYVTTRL

[17] = target: Dual specificity tyrosine-phosphorylation-regulated kinase 1A (Rattus norvegicus, UniProt Q63470); type: biochemical, Homo sapiens
[18] = target: Heat shock protein HSP 90-alpha (Homo sapiens, UniProt P07900); type: functional, organism-based

Cc1ccccc1OCCCCCn1ccnc1
EC50 [1]: 0.54 µM (active)
EC50 [2]: 0.417 µM (active)
EC50 [3]: 116 µM (active)
EC50 [4]: > 60 µM (not active)
EC50 [5]: 0.417 µM (active)

CCOC(=O)c1c(CN(C)C)oc2cc(CN(C)C)c(O)c(CSc3ccccc3)c12
CC50 (MDCK [6]): 19.5 µM (active)
IC50 (MDCK [7]): 22.6 µM (active)
IC50 (Nonstructural protein 1): > 100 µM (active)

CCCCOc1ccc(C2OC34CCCCC3C(C#N)(C#N)C2(C#N)C(=N)O4)cc1 (centres undefined)
AC50 (Keap1/Nrf2): > 52 µM (inactive)

CCCN(Cc1ccc(C)cc1)C(=O)c1ccc(CNS(=O)(=O)c2ccc(C(C)=O)cc2)cc1
AC50 (HeLa): 37.4 µM (active)

COc1ccc(CN2CCC(n3nccc3NC(=O)CCCc3ccccc3)CC2)cc1C
EC50 [8]: 70.1 µM (active)
EC50 [9]: 77.4 µM (active)
EC50 [10]: 75 µM (active)
EC50 [11]: 72.5 µM (active)

Cc1ccc2ncnc(Nc3ccc(C)c(C)c3)c2c1
AC50 [12]: 1.03 µM (active)
AC50 [13]: 63.8 µM (active)

O=c1c2c([N+](=O)[O-])cc([N+](=O)[O-])cc2sn1-c1cccc(F)c1
IC50 [14]: 0.0348 µM (active)
IC50 (Phosphomannomutase 2): 2.08 µM (active)
IC50 [15]: 30.1 µM (active)

Cc1ccc(NC2c3ccccc3C(=O)N2c2ccccc2C)cc1 (centres undefined)
IC50 (Hexokinase-1): > 80 µM (inactive)
IC50 (Hexokinase HKDC1): > 80 µM (inactive)

Cc1cc(N2CCN(c3ccccc3C#N)CC2)nc2ccccc12
IC50 [16]: 8.9 µM (active)

O=[N+]([O-])c1cc(/C=N/O)ccc1Oc1ccccc1Cl
AC50 [17]: 3.19 µM (active)
AC50 [18]: 3.04 µM (active)
